Columns and labels:
Experiment in all cases: relative viability (nuclei count vs DMSO), 5 days (fraction); higher = more cells survive
[1] = compound: CC1=CC(=C(N1C2=CC=C(C=C2)Cl)C)C(=O)CN3CCCCC3 [IU1-47] + COc1cc2c(Oc3ccc(NC(=O)C4(C(=O)Nc5ccc(F)cc5)CC4)cc3F)ccnc2cc1OCCCN1CCOCC1 [Foretinib] (partner 0.25 µM)
Procedure, shortened: (§1)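 Nuclei were stained with Hoechst during a one-step fixation (final 0.05% Triton X-100, 1% formaldehyde, 1 ug/ml Hoechst) carried out 5 days after dosing, then counted on 4× images. The cells, lung cancer lines in 1536-well plates, had been dosed by pin tool the day after seeding with one drug alone or a fixed anchor-drug dose plus five library-drug doses (not always all listed) in √10 steps. Relative viability is the nuclei count in treated wells divided by that in vehicle wells, and each value is the median of duplicate plates.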

[2] = compound: CC1=CC(=C(N1C2=CC=C(C=C2)Cl)C)C(=O)CN3CCCCC3 [IU1-47] + Cc1cc(Nc2cc(N3CCN(C)CC3)nc(Sc3ccc(NC(=O)C4CC4)cc3)n2)n[nH]1 [Tozasertib] (partner 0.1 µM)
Procedure, shortened: as §1

[3] = compound: Cc1nc(C(=O)NCC(=O)O)c(O)c2ccc(Oc3ccccc3)cc12 [FG-4592] + CC(C)C[C@H](NC(=O)[C@H](Cc1ccccc1)NC(=O)c1cnccn1)B(O)O [Bortezomib] (partner 0.002 µM)
Procedure, shortened: as §1

[4] = compound: Cc1nc(C(=O)NCC(=O)O)c(O)c2ccc(Oc3ccccc3)cc12 [FG-4592] + C[C@@H](Oc1cc(-c2cnn(C3CCNCC3)c2)cnc1N)c1c(Cl)ccc(F)c1Cl [Crizotinib] (partner 1 µM)
Procedure, shortened: as §1

**Q.** With UMC-11 as the cell line, how does the relative viability ([1]; first compound 0.08 µM) read?
**A.** 1.13

**Q.** And the relative viability ([1]; first compound 0.253 µM)?
**A.** 0.99

**Q.** What about the relative viability ([1]; first compound 0.8 µM) of the same cell line?
**A.** 1.25

**Q.** What about the relative viability ([1]; first compound 2.53 µM) of the same cell line?
**A.** 1.15

**Q.** What about the relative viability ([1]; first compound 8 µM) of the same cell line?
**A.** 1.13

**Q.** And the relative viability ([2]; first compound 0.08 µM)?
**A.** 0.215

**Q.** And the relative viability ([2]; first compound 0.253 µM)?
**A.** 0.209

**Q.** What about the relative viability ([2]; first compound 0.8 µM) of the same cell line?
**A.** 0.201

**Q.** And the relative viability ([2]; first compound 2.53 µM)?
**A.** 0.218

**Q.** And the relative viability ([2]; first compound 8 µM)?
**A.** 0.214

**Q.** And the relative viability ([3]; first compound 0.08 µM)?
**A.** 0.752

**Q.** What about the relative viability ([3]; first compound 0.253 µM) of the same cell line?
**A.** 0.771

**Q.** And the relative viability ([3]; first compound 0.8 µM)?
**A.** 0.633

**Q.** What about the relative viability ([3]; first compound 2.53 µM) of the same cell line?
**A.** 0.75

**Q.** And the relative viability ([3]; first compound 8 µM)?
**A.** 0.692

**Q.** And the relative viability ([4]; first compound 0.08 µM)?
**A.** 0.546

**Q.** What about the relative viability ([4]; first compound 0.253 µM) of the same cell line?
**A.** 0.644

**Q.** And the relative viability ([4]; first compound 0.8 µM)?
**A.** 0.582

**Q.** And the relative viability ([4]; first compound 2.53 µM)?
**A.** 0.642

**Q.** What about the relative viability ([4]; first compound 8 µM) of the same cell line?
**A.** 0.536
